Where a name gives a salt, the structure may show the parent alone.
Experiments:
[1] = Systemic toxicity assessment, i.p. treatment; type: in vivo; conditions: nude mice, 3 weeks
Procedure: (§1) Tumor kinetics are measured by subcutaneous injection of 5×10^6 UACC 903 or 2.5×10^61205 Lu cells in 0.2 ml of DMEM containing 10% FBS above left and right rib cages of 4-6 week old female nude mice (Harlan Sprague Dawley, Indianapolis, Ind.). Six days later, a fully vascularized tumor has developed and mice are randomly placed in control DMSO or experimental (PBIT or PBISe) groups (n=5 animals; 10 tumors total) followed by i.p. treatment with PBIT ([…]) or PBISe ([…]; equivalent to 2.5 ppm selenium per 20 g mouse) on Monday, Wednesday and Friday for 3 weeks. Dimensions of developing tumors and body weight are measured.
Systemic toxicity of PBISe in animals is evaluated in nude mice. Mice are exposed to PBISe or PBIT ([…]), or vehicle DMSO, 3 times per week and animals weighed to ascertain possible toxicity. 4-6 week old female nude mice (Harlan Sprague Dawley, Indianapolis, Ind.) are injected i. p. with either control DMSO vehicle, PBIT or PBISe (0.315 μmoles each) for 3 weeks by following the regime used for tumorigenicity. Blood is then collected from each animal in plasma separator tubes with lithium heparin (BD Microtainer, BD, Franklin Lakes, N.J.) following cardiac puncture and analyzed for SGOT, SGPT, alkaline phosphatase, glucose and creatinine to ascertain liver, heart, kidney and pancreas related toxicity. For morphological examination of blood cells, whole blood is collected in microtainer tubes containing K2EDTA (BD Microtainer, BD, Franklin Lakes, N.J.) and RBC, WBC, lymphocytes, monocytes, eosinophils, platelets, total hemoglobin and hematocrit percentage analyzed. Blood is also microscopically examined for segregates, polychromatin bodies, and smudge cells. A portion of vital organs—liver, heart, kidney, intestine, pancreas and adrenal—from each animal is formalin fixed and paraffin-embedded to examine for toxicity-associated changes in cell morphology and organization following H&E staining. […] Thus, PBISe treatment has negligible associated systemic toxicity at the concentrations examined.

[2] = system: HT-29 colorectal adenocarcinoma cells; test: MTS cell viability assay, HT-29; type: cell-based; conditions: Homo sapiens; HT-29; 24-72 hours; MTS; read-out: Inhibition of growth IC50, HT-29 (Table II)
[3] = system: iNOS (total nitrate+nitrite in Caco-2 cells); test: Nitrite estimation (nitrate/nitrite colorimetric assay); type: cell-based; conditions: 2-4 μM, 72 hours
Procedure: Nitrite content in cell culture media is determined using a nitrate/nitrite colorimetric assay kit (Cayman Chemical Company, Ann Arbor, Mich.) essentially as described in Salvucci, O. et al., Cancer Res 2001; 61:318-26. Caco-2 cells (1×10^6) are plated in 60 mm culture dishes in advanced DMEM containing 10% heat treated FBS for 12 hours, growing cells conditioned with phenol-red free DMEM containing 0.5% FBS for an additional 12 hours. Cells are then treated with increasing concentrations of PBIT (40 and 80 μM) or PBISe (2 and 4 μM) dissolved in phenol-red free DMEM (2 ml) containing 0.5% FBS for 72 hours. Culture supernatants are collected and total nitrite (nitrate+nitrite) measured by incubating 80 μL supernatant with enzyme cofactor mixture (10 μL) and nitrate reductase (10 μL) for 2 hours. Total nitrite is measured by the addition of Griess reagent-I and II (50 μL each). A nitrate standard curve (5-35 μM) is simultaneously prepared. Total nitrite present in media alone is subtracted from all experimental values and represented as micromolar nitrite produced following each treatment.

1205 Lu melanoma tumors = test: Tumorigenicity assessment, 1205 Lu xenograft, i.p. treatment; type: in vivo, nude mice; conditions: day 24; i.p. 0.315 μmoles (2.5 ppm selenium) Monday, Wednesday, Friday for 3 weeks
Procedure: as §1

[4] = system: PI3 kinase/Akt3 and MAP kinase signaling in UACC 903 cells; test: Western blot analysis of melanoma cell lysates; type: cell-based
Procedure: Melanoma cell line UACC 903 cells (1×10^6) are treated with increasing concentrations (7-21 μM) of PBIT and PBISe for 24 hours and cell lysates examined by Western blot analysis Cell lysates are harvested by addition of lysis buffer containing 50 mM HEPES (pH 7.5), 150 mM NaCl, 10 mM EDTA, 10% glycerol, 1% Triton X-100, 1 mM sodium orthovanadate, 0.1 mM sodium molybdate, 1 mM phenylmethylsulfonyl fluoride, 20 μg/ml aprotinin, and 5 μg/ml leupeptin. Whole cell lysates are centrifuged (≧10,000×g) for 10 minutes at 4° C. to remove cell debris. Protein concentrations are quantitated using the BCA assay (Pierce, Rockford, Ill.), and 30 μg of lysate loaded per lane onto NuPAGE Gels (Life Technologies, Carlsbad, Calif.). Following electrophoresis, samples are transferred to polyvinylidene difluoride membrane (Pall Corporation, Pensacola, Fla.). Blots are probed with antibodies to PRAS40 and phosphorylated PRAS40 (Thr246) (Invitrogen, Carlsbad, Calif.); antibodies to iNOS, cyclin D1, p27, p21, Erk2, α-enolase and secondary antibodies conjugated with horseradish peroxidase from Santa Cruz Biotechnology (Santa Cruz, Calif.); and antibodies to Akt3, phosphorylated-Akt (Ser473), phosphorylated-Erk 1/2 (Thr202/Tyr204), caspase-3 and cleaved PARP from Cell Signaling Technology (Danvers, Mass.). Immunoblots are developed using ECL (Pierce, Rockford, Ill.).

[5] = system: UACC 903 melanoma cell line; test: MTS cell viability assay, UACC 903; type: cell-based; conditions: Homo sapiens; UACC 903 melanoma; 24 hours treatment; MTS; read-out: IC50, UACC 903 (Table I)
Procedure: Cellular viability compared to control treated cells is measured using the MTS assay (Promega, Madison, Wis.).

[6] = system: normal human fibroblast FF2441 and UACC 903 cells; test: Sensitivity of melanoma cells compared to normal cells; type: cell-based; conditions: FF2441 vs UACC 903; 2, 4, 6, 12 and 24 hours
Source text: Sensitivity of melanoma cells to PBISe is compared to normal cells. […] Thus, cultured cancer cells are 2-5 fold more sensitive to PBISe than normal cells.

[7] = system: PC-3 prostate adenocarcinoma cells; test: MTS cell viability assay, PC-3; type: cell-based, human
Procedure: Growth inhibitory effects on cultured cells from human vertical growth phase (VGP) melanoma cell line WM115, Lung adenocarcinoma (A549), fibrosarcoma (HT-1080), prostate adenocarcinoma (PC-3), ovarian carcinoma (OVCAR-3), and breast adenocarcinoma (MDA-MB-231) are plated in 96 well plates at a density of 5×10^3 cells/well in 100 μl media. […] Dose response curves for each compound are generated and the IC50 values (μM) determined using GraphPad Prism software. Each experiment is replicated at least 3 times and the average IC50 (μM) values with standard error represented.

[8] = Toxicity of topical application in vivo
Procedure: Blood collected from the control and experimental animals, at the end of treatment (day 29), are analyzed for SGOT, SGPT (representing liver and cardiac toxicity) and alkaline phosphatase (for kidney and cardiac toxicity). Additionally, concentrations of metabolites (glucose, creatinine, urea nitrogen and total protein) in serum are also determined.

[9] = UACC 903, 7-21 μM, 24 hours, compared to PBIT

For N=C(N)[Se]CCc1ccc(CC[Se]C(=N)N)cc1 [PBISe, s,s′-1,4-phenylene-bis(1,2-ethanediyl)bis-isoselenourea dihydrobromide], the “blood parameters (SGOT, SGPT, alkaline phosphatase, blood urea, glucose and creatinine)” value ([1]; i.p. 0.315 μmoles) was “did not detect significant liver, kidney or cardiac related toxicity”, the “histological examination of H&E stained vital organ sections” value ([1]; i.p. 0.315 μmoles) was “did not significantly change cell morphology or organ structure” and the “body weight during treatment” value ([1]; i.p. 3 times per week) was “No significant difference”. For the same molecule, the IC50 [2] was 3.84 ± 0.44 µM, the “total nitrate+nitrite production” value [3] was “reduces” and the “difference in tumor volume compared to control DMSO or PBIT, 1205 Lu” value (1205 Lu melanoma tumors) was roughly 50%. The “cleaved caspase-3 and PARP” value ([4]; UACC 903, 7-21 μM, 24 hours) was “increases”, the “phosphorylation of downstream Akt3 substrate PRAS40” value ([4]; UACC 903, 7-21 μM, 24 hours) was “inhibited” and the Akt phosphorylation [4, 9] was “inhibits”. The “total Akt protein levels” value [4, 9] was “decreases”, the “cyclin D1 levels” value ([4]; melanoma cells, FIG. 4C) was “reduces” and the “p27 as well as p21 levels” value ([4]; three cell lines, FIG. 4C) was “increases”. The IC50 [5] was 8.1 ± 0.8 µM, the “fold higher concentrations required to kill fibroblasts compared to melanoma cells” value [6] was 2-5 fold and the IC50 ([7]; Homo sapiens, 24 h, read-out: Inhibition Cancer Cells IC50, PC-3 (Table III)) was 6.6 ± 0.95 µM. For the same molecule, the “Fold increase in efficacy (PBIT/PBISe), PC-3” value ([7]; ratio of IC50 PBIT/PBISe, PC-3) was greater than 15.2 fold, the “serum enzyme and metabolite levels, topical application” value ([8]; day 29, SGOT, SGPT, alkaline phosphatase, glucose, creatinine, urea nitrogen, total protein) was “no significant differences” and the “body weight, topical application” value ([8]; topical every day, 29 days) was “no detectable differences”.
